According to patent publication US9789181B2, “PAN-DR binding polypeptides and uses thereof” (Epimmune Inc., priority 2009, dated 2017):
Where no end group is shown, it is not given here.

Experiments:
[1] = molecular target: HLA DRB1 *0701 (Homo sapiens, UniProt P01903+P01911, A100R/A102G/A103Q/D57E/D86V/E43K/F76Y/K127E/L162R/M171V/P40G/Q125H/Q99D/R33Q/R42Y/R54Q/S133A/S66F/T210M/V115G/Y107V/Y59L/Y89S); experiment: IC50nM to purified HLA | DRB1 *0701
Experimental: (§1) Table printed on a drawing sheet, FIG. 1 (contd.)
Head of the field: IC50nM to purified HLA | DRB1 *0701
(§2) First copying reader's note: Continued from the preceding sheet of FIG. 1; decimal commas are used, the analog names give the substituted residues and positions in PADRE, and some values are printed in italics or bold and some SEQ ID NOs bold and underlined without a legend on this sheet.
Where the first naming reader finds the target: head: IC50nM to purified HLA | DRB1 *0701

[2] = molecular target: HLA DRB1 *0405 (Homo sapiens, UniProt P01903+P01911, A100R/A169T/D86S/F76Y/I96L/K127E/L162R/M171V/N62H/P40V/Q125Y/R42H/S133A/S149N/S66Y/V115G/V209L/W38E); experiment: IC50nM to purified HLA | DRB1 *0405
Experimental: as §1
Head of the field: IC50nM to purified HLA | DRB1 *0405
as §2
Where the first naming reader finds the target: head: IC50nM to purified HLA | DRB1 *0405

[3] = molecular target: HLA DRB1 *0404 (Homo sapiens, UniProt P01903+P01911, A100R/A169T/F76Y/I96L/K127E/L162R/M171V/N62H/P40V/Q125Y/R42H/S133A/S149N/S66Y/V209L/W38E); experiment: IC50nM to purified HLA | DRB1 *0404
Experimental: as §1
Head of the field: IC50nM to purified HLA | DRB1 *0404
as §2
Where the first naming reader finds the target: head: IC50nM to purified HLA | DRB1 *0404

[4] = molecular target: HLA DRB1 *1101 (Homo sapiens, UniProt P01903+P01911, A100R/A169T/A87E/I96F/K41T/L162R/M171V/P40S/Q125H/Q178H/Q39Y/Q99D/R42S/S66Y/T262R/V115G/W38E); experiment: IC50nM to purified HLA | DRB1 *1101
Experimental: as §1
Head of the field: IC50nM to purified HLA | DRB1 *1101
as §2
Where the first naming reader finds the target: head: IC50nM to purified HLA | DRB1 *1101

[5] = molecular target: HLA DRB1 *0101 (Homo sapiens, UniProt P01903+P01911, A100R/D57E/F55L/F60I/F76Y/I96L/L162R/M171V/P40L/Q125E/R42F/V115G/Y59C); experiment: IC50nM to purified HLA | DRB1 *0101
Experimental: as §1
Head of the field: IC50nM to purified HLA | DRB1 *0101
as §2
Where the first naming reader finds the target: head: IC50nM to purified HLA | DRB1 *0101

[6] = molecular target: HLA DRB4 *0101 (Homo sapiens, UniProt P01903+P13762, G164S); experiment: IC50nM to purified HLA | DRB4 *0101
Experimental: as §1
Head of the field: IC50nM to purified HLA | DRB4 *0101
as §2
Where the first naming reader finds the target: head: IC50nM to purified HLA | DRB4 *0101

[7] = molecular target: HLA DRB1 *1501 (Homo sapiens, UniProt P01903+P01911); experiment: IC50nM to purified HLA | DRB1 *1501
Experimental: as §1
Head of the field: IC50nM to purified HLA | DRB1 *1501
as §2
Where the first naming reader finds the target: head: IC50nM to purified HLA | DRB1 *1501

[8] = molecular target: HLA DRB1 *0401 (Homo sapiens, UniProt P01903+P01911, A100K/A169T/F76Y/I96L/K127E/L162R/M171V/N62H/P40V/Q125Y/R42H/S133A/S149N/S66Y/V115G/V209L/W38E); experiment: IC50nM to purified HLA | DRB1 *0401
Experimental: as §1
Head of the field: IC50nM to purified HLA | DRB1 *0401
as §2
Where the first naming reader finds the target: head: IC50nM to purified HLA | DRB1 *0401

[9] = molecular target: HLA DRB1 *0301 (Homo sapiens, UniProt P01903+P01911, A100K/A102G/A103R/A169T/F55Y/I96L/K41T/L162R/M171V/P40S/Q125H/Q178H/Q39Y/R42S/S66N/T106N/T262R/W38E/Y61H); experiment: IC50nM to purified HLA | DRB1 *0301
Experimental: as §1
Head of the field: IC50nM to purified HLA | DRB1 *0301
as §2
Where the first naming reader finds the target: head: IC50nM to purified HLA | DRB1 *0301

[10] = molecular target: HLA DRB1 *0901 (Homo sapiens, UniProt P01903+P01911, A100R/A103E/D57H/D86V/F55Y/F60I/F76Y/I96F/K127E/L162R/M171V/P40D/Q125H/Q99R/R33Q/R42F/S133A/S66N/T210M/V115G/W38K/Y107V/Y59G/Y89S); experiment: IC50nM to purified HLA | DRB1 *0901
Experimental: as §1
Head of the field: IC50nM to purified HLA | DRB1 *0901
as §2
Where the first naming reader finds the target: head: IC50nM to purified HLA | DRB1 *0901

[11] = molecular target: HLA DRB1 *0802 (Homo sapiens, UniProt P01903+P01911, A100R/A103L/A169T/F76Y/H45Y/I96F/K41T/L162R/M171V/P40S/Q125H/Q178H/Q39Y/Q99D/R218S/R42G/S66Y/V115G/W38E); experiment: IC50nM to purified HLA | DRB1 *0802
Experimental: as §1
Head of the field: IC50nM to purified HLA | DRB1 *0802
as §2
Where the first naming reader finds the target: head: IC50nM to purified HLA | DRB1 *0802

[12] = molecular target: HLA DRB5 *0101 (Homo sapiens, UniProt P01903+Q30154); experiment: IC50nM to purified HLA | DRB5 *0101
Experimental: as §1
Head of the field: IC50nM to purified HLA | DRB5 *0101
as §2
Where the first naming reader finds the target: head: IC50nM to purified HLA | DRB5 *0101

[13] = molecular target: HLA DRB1 *1302 (Homo sapiens, UniProt P01903+P01911, A100E/A169T/K41T/L162R/M171V/P40S/Q125H/Q178H/Q39Y/Q99D/R42S/S66N/T262R/V115G/W38E/Y61H); experiment: IC50nM to purified HLA | DRB1 *1302
Experimental: as §1
Head of the field: IC50nM to purified HLA | DRB1 *1302
as §2
Where the first naming reader finds the target: head: IC50nM to purified HLA | DRB1 *1302

Sequence of HLA DRB1 *1101 (P01903 26-254 limits assumed, other chains not shown): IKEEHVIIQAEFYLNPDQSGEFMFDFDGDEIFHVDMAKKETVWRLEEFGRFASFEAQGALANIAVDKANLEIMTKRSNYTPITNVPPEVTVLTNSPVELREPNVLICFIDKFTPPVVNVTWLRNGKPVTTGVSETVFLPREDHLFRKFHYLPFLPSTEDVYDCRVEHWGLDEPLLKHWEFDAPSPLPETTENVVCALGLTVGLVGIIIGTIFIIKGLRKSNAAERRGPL
Sequence of HLA DRB1 *0301 (P01903 26-254 limits assumed, other chains not shown): as above
Sequence of HLA DRB4 *0101 (P01903 26-254 limits assumed): as the sequence (P01903 26-254 limits assumed, other chains not shown) above
Sequence of HLA DRB4 *0101 (P13762 whole entry G164S): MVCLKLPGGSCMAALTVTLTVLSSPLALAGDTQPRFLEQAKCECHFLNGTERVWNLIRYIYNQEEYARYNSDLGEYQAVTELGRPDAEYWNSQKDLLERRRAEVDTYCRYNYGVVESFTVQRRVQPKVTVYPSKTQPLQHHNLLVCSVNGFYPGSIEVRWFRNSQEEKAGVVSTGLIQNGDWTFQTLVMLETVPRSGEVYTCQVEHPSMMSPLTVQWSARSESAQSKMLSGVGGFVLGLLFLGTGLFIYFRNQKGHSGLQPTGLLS
Sequence of HLA DRB1 *1302 (P01903 26-254 limits assumed, other chains not shown): as the sequence (P01903 26-254 limits assumed, other chains not shown) above

| Sequence | IC50 [1] [nM] | IC50 [2] [nM] | IC50 [3] [nM] | IC50 [4] [nM] | IC50 [5] [nM] | IC50 [6] [nM] | IC50 [7] [nM] | IC50 [8] [nM] | IC50 [9] [nM] | IC50 [10] [nM] | IC50 [11] [nM] | IC50 [12] [nM] | IC50 [13] [nM] |
| --- | --- | --- | --- | --- | --- | --- | --- | --- | --- | --- | --- | --- | --- |
| AAADFVAANTLHAAA [SEQ ID NO: 44] | 196 |  | 8.6 |  | 7.8 |  | 580 | 6.6 | 731 | 82 | 44 | 80 | 187 |
| AAADFVAAWTLHAAA [SEQ ID NO: 41] | 152 | 27 | 7.1 | 28 | 4.9 |  | 89 | 5.3 | 249 | 40 | 24 |  |  |
| AAADFVAAWTLKAAA [SEQ ID NO: 40] | 195 | 30 | 4 | 19 | 7 | 1540 | 64 | 5.1 | 330 |  | 17 |  | 4000 |
| AAADFVAAYTLHAAA [SEQ ID NO: 42] | 182 | 21 | 5.3 | 40 | 4.8 |  | 19 | 4.5 | 286 | 32 | 14 |  |  |
| AAAEFVAAFTLHAAA [SEQ ID NO: 48] | 140 | 14 | 2.6 | 48 | 6.1 | 132 | 50 | 2.1 |  | 18 | 19 |  | 2020 |
| AAAEFVAAWTLHAAA [SEQ ID NO: 46] | 97 | 27 | 4.1 | 38 |  |  |  | 3.1 | 134 | 44 | 24 | 48 | 1150 |
| AAAEFVAAWTLKAAA [SEQ ID NO: 45] |  | 9.8 | 2.8 | 45 | 2.5 | 332 | 56 | 3.8 | 169 | 41 | 16 | 6.7 | 840 |
| AAAHFVAAFTLKADA [SEQ ID NO: 33] | 83 | 19 | 9.5 | 76 | 6.7 | 948 | 37 | 15 |  | 30 |  |  | 594 |
| AAAHFVAAYTLKAEA [SEQ ID NO: 37] |  | 11 | 5.3 | 44 | 6.9 | 721 | 10 | 7.5 |  | 35 |  | 16 | 1010 |
| AAANFVAAYTLHAAA [SEQ ID NO: 52] | 67 | 19 |  | 16 | 2.7 |  | 4.2 |  | 171 |  |  |  | 1420 |

Results, then the sequence that gave them:

| IC50 [1] [nM] | IC50 [2] [nM] | IC50 [3] [nM] | IC50 [4] [nM] | IC50 [5] [nM] | IC50 [6] [nM] | IC50 [7] [nM] | IC50 [8] [nM] | IC50 [9] [nM] | IC50 [10] [nM] | IC50 [11] [nM] | IC50 [12] [nM] | IC50 [13] [nM] | Sequence |
| --- | --- | --- | --- | --- | --- | --- | --- | --- | --- | --- | --- | --- | --- |
| 223 | 11 | 3.7 | 44 | 7.3 | 1050 | 97 | 4.7 | 746 |  |  |  |  | AAADFVAAFTLHAAA [SEQ ID NO: 43] |
| 161 | 17 | 3.2 | 27 | 3.9 | 448 | 6.9 | 2.3 | 144 | 28 | 13 | 52 | 1450 | AAAEFVAAYTLHAAA [SEQ ID NO: 47] |
| 88 | 36 | 13 | 91 |  |  | 172 | 21 | 3120 | 60 | 67 | 18 |  | AAAHFVAANTLKADA [SEQ ID NO: 34] |
| 83 | 36 | 14 |  | 7.1 | 941 |  | 12 |  |  | 64 |  | 234 | AAAHFVAANTLKAEA [SEQ ID NO: 39] |
|  | 16 | 7.1 |  | 5.1 | 2100 |  | 8.5 |  |  | 24 | 23 | 875 | AAAHFVAAWTLKADA [SEQ ID NO: 31] |
|  |  |  | 53 | 5.1 | 677 | 20 | 6.4 |  | 44 | 22 | 18 | 1100 | AAAHFVAAWTLKAEA [SEQ ID NO: 36] |
| 48 |  | 9.6 |  | 5.4 |  | 11 | 11 |  | 31 |  | 17 |  | AAAHFVAAYTLKADA [SEQ ID NO: 32] |
|  | 17 | 9.7 |  | 5 |  | 19 | 7.3 | 1160 | 27 |  | 19 | 807 | AAAKFVAAWTLKADA [SEQ ID NO: 30] |
|  | 8.4 |  | 36 |  | 710 | 23 | 6.5 |  | 41 | 21 | 17 |  | AAAKFVAAWTLKAEA [SEQ ID NO: 35] |
